In ChEMBL document CHEMBL1201862, “PubChem BioAssay data set” (2004):
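Cultured in 96-well plates, cells were exposed to test compound for 48 hours across five concentrations. GI50: concentration for 50% inhibition of growth.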 Active and inactive are the calls of the source. Cut-off read from the data, not from the text of the source: active = GI50 up to about 1.1 µM and inactive = higher.

How the values were obtained:
Assay in all cases: NCI-60 cell line screen, 48 h
CAKI-1 = test system: CAKI-1
UACC-62 = test system: UACC-62
OVCAR-8 = test system: OVCAR-8
TK-10 = test system: TK-10
UO-31 = test system: UO-31
UACC-257 = test system: UACC-257
ACHN = test system: ACHN
NCI-H226 = test system: NCI-H226
M14 = test system: M14
IGROV-1 = test system: IGROV-1
SW-620 = test system: SW-620
EKVX = test system: EKVX
RPMI-8226 = test system: RPMI-8226
HL-60 = test system: HL-60
MOLT-4 = test system: MOLT-4
SR = test system: SR

Measured: GI50

CC(=O)C1C(=O)C(=O)N(CCN2C(=O)C(=O)C(C(C)=O)C2=O)C1=O (stereo not given)
inactive: CAKI-1 > 100 µM | UACC-62 > 100 µM | OVCAR-8 > 100 µM | TK-10 > 100 µM | UO-31 > 100 µM | UACC-257 > 100 µM | ACHN > 100 µM | NCI-H226 > 100 µM | M14 > 100 µM | IGROV-1 > 100 µM | SW-620 > 100 µM | EKVX > 100 µM | RPMI-8226 > 100 µM

O=C1[C@H]2ON(c3ccccc3)C(c3ccccc3)[C@H]2C(=O)N1c1ccc(Cc2ccc(N3C(=O)[C@@H]4ON(c5ccccc5)C(c5ccccc5)[C@@H]4C3=O)cc2)cc1 (stereo not given in full)
inactive: CAKI-1 > 100 µM | UACC-62 > 100 µM | HL-60 > 100 µM | UO-31 > 100 µM | UACC-257 > 100 µM | ACHN > 100 µM | NCI-H226 > 100 µM | MOLT-4 > 100 µM | M14 > 100 µM | IGROV-1 > 100 µM | SW-620 > 100 µM | RPMI-8226 > 100 µM

COc1c(C2=NC(C(C)C)CO2)ccc2ccccc12 (stereo not given)
inactive: CAKI-1 61.5 µM | UACC-62 49 µM | OVCAR-8 41.5 µM | TK-10 88.3 µM | HL-60 14.6 µM | UO-31 31.4 µM | UACC-257 34.2 µM | ACHN 42.6 µM | NCI-H226 30.6 µM | MOLT-4 14.2 µM | M14 63.5 µM | IGROV-1 71 µM | SW-620 45 µM | EKVX 37.1 µM | RPMI-8226 22.6 µM

CC(C)N(C(=O)C12C3C4C5C3C1(C(=O)O)C5C42)C(C)C (stereo not given)
inactive: CAKI-1 > 100 µM | UACC-62 > 100 µM | OVCAR-8 > 100 µM | TK-10 > 100 µM | HL-60 > 100 µM | UO-31 > 100 µM | UACC-257 > 100 µM | ACHN > 100 µM | MOLT-4 > 100 µM | M14 > 100 µM | IGROV-1 > 100 µM | SW-620 > 100 µM | EKVX > 100 µM | RPMI-8226 > 100 µM

COc1cccc(N2C(=O)[C@H]3[C@H]4CC(C(C)(C)C)CC[C@H]4c4c([nH]c5ccccc45)[C@H]3C2=O)c1 (stereo not given in full)
inactive: CAKI-1 17.2 µM | UACC-62 14.6 µM | OVCAR-8 14.9 µM | TK-10 15.2 µM | HL-60 28 µM | UO-31 17.6 µM | UACC-257 20.6 µM | NCI-H226 22.1 µM | MOLT-4 11.9 µM | M14 15.1 µM | IGROV-1 17.1 µM | SW-620 17.4 µM | EKVX 20 µM | RPMI-8226 15.4 µM

CC(=O)c1cc2c3c(c1)c1cc4c(cc1c(=O)n3CC2)OCO4
inactive: CAKI-1 20.8 µM | UACC-62 17.3 µM | OVCAR-8 8.3 µM | TK-10 21.2 µM | HL-60 39.3 µM | UO-31 8.11 µM | UACC-257 26.7 µM | ACHN 16.9 µM | NCI-H226 > 100 µM | MOLT-4 2.92 µM | M14 59.7 µM | IGROV-1 28.8 µM | SW-620 7.78 µM | SR 4.32 µM | EKVX 46.2 µM | RPMI-8226 17.6 µM

CC(=O)OC12CCCCC1C1(CCCC1)NC2=O (stereo not given)
inactive: UACC-62 > 100 µM | OVCAR-8 > 100 µM | TK-10 > 100 µM | HL-60 > 100 µM | UO-31 > 100 µM | UACC-257 > 100 µM | ACHN > 100 µM | NCI-H226 > 100 µM | MOLT-4 > 100 µM | M14 > 100 µM | IGROV-1 > 100 µM | SW-620 > 100 µM | SR > 100 µM | EKVX > 100 µM | RPMI-8226 > 100 µM

Cc1nc2ccccc2c(=O)n1/N=C(\N=N\c1cc(Cl)ccc1Cl)c1cccc(-c2ccco2)c1
inactive: CAKI-1 > 100 µM | UACC-62 48.1 µM | OVCAR-8 95.9 µM | TK-10 > 100 µM | HL-60 > 10 µM | UO-31 37.7 µM | UACC-257 > 100 µM | ACHN 73.6 µM | NCI-H226 > 100 µM | MOLT-4 35.3 µM | M14 > 100 µM | IGROV-1 61.4 µM | SW-620 > 100 µM | EKVX > 100 µM | RPMI-8226 42.8 µM

CCc1c(OC(C)=O)c2c(NC3OC(COC(C)=O)C(OC(C)=O)C(OC(C)=O)C3OC(C)=O)nc(OC)nc2oc1=O (stereo not given)
inactive: CAKI-1 > 100 µM | UACC-62 > 100 µM | OVCAR-8 > 100 µM | TK-10 > 100 µM | HL-60 > 100 µM | UO-31 > 100 µM | UACC-257 > 100 µM | ACHN > 100 µM | NCI-H226 > 100 µM | MOLT-4 > 100 µM | M14 > 100 µM | IGROV-1 > 100 µM | SW-620 > 100 µM | EKVX > 100 µM | RPMI-8226 > 100 µM

Cc1ccc(S(=O)(=O)N/N=C\c2c3ccccc3[n+](C)c3ccccc23)cc1
inactive: CAKI-1 17.7 µM | UACC-62 19.8 µM | OVCAR-8 38.5 µM | TK-10 48.3 µM | HL-60 22 µM | UO-31 26.9 µM | UACC-257 30.8 µM | ACHN 41.9 µM | NCI-H226 25 µM | MOLT-4 17.6 µM | M14 26 µM | IGROV-1 29.6 µM | SW-620 33.8 µM | EKVX 54.6 µM | RPMI-8226 29.8 µM

O=C(O/N=C1/CCCC/C1=C\c1ccccc1)c1ccc(Cl)cc1
inactive: CAKI-1 84.5 µM | UACC-62 > 100 µM | OVCAR-8 > 100 µM | TK-10 > 100 µM | HL-60 24.7 µM | UO-31 > 100 µM | UACC-257 > 100 µM | ACHN > 100 µM | NCI-H226 > 100 µM | M14 > 100 µM | IGROV-1 > 100 µM | SW-620 > 100 µM | SR 56.6 µM | EKVX 42.1 µM | RPMI-8226 > 100 µM

CC1(C)OCN(c2ccc(N3CCOCC3)cc2)Cn2c1nc1ccccc12
inactive: UACC-62 > 100 µM | OVCAR-8 > 100 µM | TK-10 > 100 µM | HL-60 26.4 µM | UO-31 > 100 µM | UACC-257 46.1 µM | ACHN 64 µM | NCI-H226 55.3 µM | MOLT-4 > 100 µM | M14 > 100 µM | IGROV-1 > 100 µM | SW-620 34.1 µM | SR 31.2 µM | EKVX > 100 µM | RPMI-8226 27.9 µM

c1cnc2nc3n(c2c1)CSC3
inactive: CAKI-1 > 100 µM | UACC-62 > 100 µM | OVCAR-8 > 100 µM | TK-10 > 100 µM | HL-60 > 100 µM | UO-31 > 100 µM | UACC-257 > 100 µM | ACHN > 100 µM | NCI-H226 > 100 µM | MOLT-4 > 100 µM | M14 > 100 µM | IGROV-1 > 100 µM | SW-620 > 100 µM | EKVX > 100 µM | RPMI-8226 > 100 µM

CCOC(=O)Nc1ccc(S(=O)(=O)I)cc1.CCOC(=O)Nc1ccc(S(=O)(=O)I)cc1.CN(C=O)C1=C(N(C)C=O)C(N(C)C=O)=C(N(C)C=O)C(=O)C1=O
inactive: CAKI-1 > 100 µM | UACC-62 > 100 µM | OVCAR-8 > 100 µM | TK-10 > 100 µM | HL-60 > 100 µM | UO-31 > 100 µM | UACC-257 > 100 µM | ACHN > 100 µM | MOLT-4 > 100 µM | M14 > 100 µM | IGROV-1 > 100 µM | SW-620 > 100 µM | SR > 100 µM

CC1CCC2(OCCO2)[C@]2(C)CC(O)C(=O)C=C12 (stereo not given in full)
inactive: OVCAR-8 > 100 µM | TK-10 > 100 µM | HL-60 > 100 µM | UO-31 > 100 µM | UACC-257 > 100 µM | ACHN > 100 µM | NCI-H226 > 100 µM | MOLT-4 > 100 µM | M14 > 100 µM | IGROV-1 > 100 µM | SW-620 > 100 µM | SR > 100 µM | EKVX > 100 µM | RPMI-8226 > 100 µM

CC1(Cl)C(=O)NC(=O)N([C@H]2C[C@H](O)[C@@H](CO)O2)C1N=[N+]=[N-] (stereo not given in full)
inactive: CAKI-1 > 100 µM | UACC-62 > 100 µM | OVCAR-8 > 100 µM | TK-10 > 100 µM | HL-60 > 100 µM | UO-31 > 100 µM | UACC-257 > 100 µM | ACHN > 100 µM | NCI-H226 > 100 µM | MOLT-4 > 100 µM | M14 > 100 µM | IGROV-1 > 100 µM | SW-620 > 100 µM | SR > 100 µM | EKVX > 100 µM | RPMI-8226 > 100 µM

Cc1ccccc1-n1c2nc(=O)n(C)c(=O)c-2nc2ccccc21
inactive: CAKI-1 24.4 µM | UACC-62 3.48 µM | OVCAR-8 12.2 µM | TK-10 12.1 µM | HL-60 11.1 µM | UO-31 29.1 µM | UACC-257 8.73 µM | ACHN 8.39 µM | NCI-H226 21 µM | MOLT-4 17.8 µM | M14 11 µM | IGROV-1 19.2 µM | SW-620 13.4 µM | EKVX 11.8 µM | RPMI-8226 16.3 µM

COc1ccc(CC2NCCc3c2[nH]c2ccccc32)cc1 (stereo not given)
inactive: UACC-62 > 100 µM | OVCAR-8 > 100 µM | TK-10 > 100 µM | HL-60 22.4 µM | UO-31 41.5 µM | ACHN 66.8 µM | NCI-H226 > 100 µM | MOLT-4 31.9 µM | M14 41.6 µM | IGROV-1 83 µM | SW-620 51.9 µM | EKVX > 100 µM | RPMI-8226 30.4 µM
